Molecules are shown by their SMILES.

The assay addresses Aβ(1–42) oligomers (Homo sapiens, UniProt P05067). In words: Short time oligomer dissociation assay. The note with it: 2h; 50 µM, 25 µM and 12.5 µM. The class given is biochemical.

Chain of Aβ(1–42) oligomers (P05067 672-713): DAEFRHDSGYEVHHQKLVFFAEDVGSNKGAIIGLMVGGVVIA

With `O=C(O)c1cc(O)ccc1O` [2,5-dihydroxybenzoic acid], the “Oligomer dissociation in short time assay” value is listed as “does result in disassembly”.
